Test: Aerosol tolerability analysis of low concentration dosage forms
Set-up: key to Throat Irritation: 1 = none; 5 = strong
Description: Additional observations include maintaining osmolality between about 250 to about 500 mOsmo/kg. The tolerability for formulations with an osmolalty outside this range may be adjusted with modifications in the above formulation parameters and device output and aerosol particle size characteristics.

Structure (SMILES): Cc1ccc(=O)n(-c2ccccc2)c1 [pirfenidone, 5-methyl-1-phenyl-2-(1H)-pyridone]
- Throat Irritation (citrate 5 mM, NaCl 100 mM, pH 5.5, pirfenidone 4 mg/mL, 3.2 micron): 2
- Est. Osmolality (citrate 5 mM, NaCl 100 mM, pH 5.5, pirfenidone 16 mg/mL (3.2 micron entry)): 400 mOsmo/Kg
- Est. Osmolality (citrate 5 mM, NaCl 100 mM, pH 5.5, pirfenidone 16 mg/mL (first 3.7 micron entry)): 400 mOsmo/Kg
- Est. Osmolality (citrate 5 mM, NaCl 100 mM, pH 5.5, pirfenidone 16 mg/mL (second 3.7 micron entry)): 400 mOsmo/Kg
- Throat Irritation (citrate 5 mM, NaCl 100 mM, pH 5.5, pirfenidone 16 mg/mL, 3.2 micron): 2
- Throat Irritation (citrate 5 mM, NaCl 100 mM, pH 5.5, pirfenidone 16 mg/mL, 3.7 micron (first entry)): 3
- Throat Irritation (citrate 5 mM, NaCl 100 mM, pH 5.5, pirfenidone 16 mg/mL, 3.7 micron (second entry)): 3
- Est. Osmolality (citrate 5 mM, NaCl 100 mM, saccharin 0.3 mM, pH 5.5, pirfenidone 4 mg/mL): 270 mOsmo/Kg
- Throat Irritation (citrate 5 mM, NaCl 100 mM, saccharin 0.3 mM, pH 5.5, pirfenidone 4 mg/mL, 3.7 micron): 2
- Est. Osmolality (citrate 5 mM, NaCl 100 mM, saccharin 0.7 mM, pH 5.5, pirfenidone 16 mg/mL (3.2 micron entry)): 400 mOsmo/Kg
- Est. Osmolality (citrate 5 mM, NaCl 100 mM, saccharin 0.7 mM, pH 5.5, pirfenidone 16 mg/mL (3.7 micron entry)): 400 mOsmo/Kg
- Est. Osmolality (citrate 5 mM, NaCl 100 mM, saccharin 0.7 mM, pH 5.5, pirfenidone 16 mg/mL (4.6 micron entry)): 400 mOsmo/Kg
- Throat Irritation (citrate 5 mM, NaCl 100 mM, saccharin 0.7 mM, pH 5.5, pirfenidone 16 mg/mL, 3.2 micron): 3
- Throat Irritation (citrate 5 mM, NaCl 100 mM, saccharin 0.7 mM, pH 5.5, pirfenidone 16 mg/mL, 3.7 micron): 2
- Throat Irritation (citrate 5 mM, NaCl 100 mM, saccharin 0.7 mM, pH 5.5, pirfenidone 16 mg/mL, 4.6 micron (slower output device ~0.5 mL/minute)): 1
- Est. Osmolality (citrate 5 mM, NaCl 100 mM, saccharin 0.9 mM, pH 5.5, pirfenidone 16 mg/mL (3.2 micron entry)): 400 mOsmo/Kg
- Est. Osmolality (citrate 5 mM, NaCl 100 mM, saccharin 0.9 mM, pH 5.5, pirfenidone 16 mg/mL (3.7 micron entry)): 400 mOsmo/Kg
- Throat Irritation (citrate 5 mM, NaCl 100 mM, saccharin 0.9 mM, pH 5.5, pirfenidone 16 mg/mL, 3.2 micron): 1
- Throat Irritation (citrate 5 mM, NaCl 100 mM, saccharin 0.9 mM, pH 5.5, pirfenidone 16 mg/mL, 3.7 micron): 2
- Est. Osmolality (citrate 5 mM, NaCl 150 mM, pH 5.5, pirfenidone 4 mg/mL (3.2 micron entry)): 330 mOsmo/Kg
- Est. Osmolality (citrate 5 mM, NaCl 150 mM, pH 5.5, pirfenidone 4 mg/mL (3.7 micron entry)): 330 mOsmo/Kg
- Throat Irritation (citrate 5 mM, NaCl 150 mM, pH 5.5, pirfenidone 4 mg/mL, 3.2 micron): 1
- Throat Irritation (citrate 5 mM, NaCl 150 mM, pH 5.5, pirfenidone 4 mg/mL, 3.7 micron): 2
- Est. Osmolality (citrate 5 mM, NaCl 150 mM, pH 5.5, pirfenidone 16 mg/mL): 400 mOsmo/Kg
- Throat Irritation (citrate 5 mM, NaCl 150 mM, pH 5.5, pirfenidone 16 mg/mL, 3.7 micron): 4
- Est. Osmolality (citrate 5 mM, NaCl 150 mM, saccharin 0.2 mM, pH 5.5, pirfenidone 4 mg/mL): 330 mOsmo/Kg
- Throat Irritation (citrate 5 mM, NaCl 150 mM, saccharin 0.2 mM, pH 5.5, pirfenidone 4 mg/mL, 3.7 micron): 2
- Est. Osmolality (citrate 5 mM, NaCl 150 mM, saccharin 0.3 mM, pH 5.5, pirfenidone 4 mg/mL): 330 mOsmo/Kg
- Throat Irritation (citrate 5 mM, NaCl 150 mM, saccharin 0.3 mM, pH 5.5, pirfenidone 4 mg/mL, 3.7 micron): 1
- Est. Osmolality (citrate 5 mM, NaCl 150 mM, saccharin 0.5 mM, pH 5.5, pirfenidone 16 mg/mL): 400 mOsmo/Kg
- Throat Irritation (citrate 5 mM, NaCl 150 mM, saccharin 0.5 mM, pH 5.5, pirfenidone 16 mg/mL, 3.7 micron): 1
- Est. Osmolality (citrate 5 mM, NaCl 150 mM, saccharin 0.9 mM, pH 5.5, pirfenidone 16 mg/mL): 400 mOsmo/Kg
- Throat Irritation (citrate 5 mM, NaCl 150 mM, saccharin 0.9 mM, pH 5.5, pirfenidone 16 mg/mL, 3.7 micron): 1
- Est. Osmolality (no buffer, NaCl 150 mM, pH ND, pirfenidone 16 mg/mL): 375 mOsmo/Kg
- Throat Irritation (no buffer, NaCl 150 mM, pH ND, pirfenidone 16 mg/mL, 3.2 micron): 5
- Est. Osmolality (no buffer, NaCl 150 mM, saccharin 0.7 mM, pH ND, pirfenidone 16 mg/mL): 375 mOsmo/Kg
- Throat Irritation (no buffer, NaCl 150 mM, saccharin 0.7 mM, pH ND, pirfenidone 16 mg/mL, 3.2 micron): 5
- Est. Osmolality (phosphate 5 mM, MgCl2 43.3 mM, pH 7, pirfenidone 16 mg/mL): 210 mOsmo/Kg
- Throat Irritation (phosphate 5 mM, MgCl2 43.3 mM, pH 7, pirfenidone 16 mg/mL, 3.7 micron): 5
- Est. Osmolality (phosphate 5 mM, MgCl2 43.3 mM, saccharin 0.5 mM, pH 7, pirfenidone 16 mg/mL): 210 mOsmo/Kg
- Throat Irritation (phosphate 5 mM, MgCl2 43.3 mM, saccharin 0.5 mM, pH 7, pirfenidone 16 mg/mL, 3.7 micron): 5
- Est. Osmolality (phosphate 5 mM, NaCl 50 mM, MgCl2 43.3 mM, pH 7, pirfenidone 16 mg/mL): 310 mOsmo/Kg
- Throat Irritation (phosphate 5 mM, NaCl 50 mM, MgCl2 43.3 mM, pH 7, pirfenidone 16 mg/mL, 3.7 micron): 4
- Est. Osmolality (phosphate 5 mM, NaCl 50 mM, pH 7, pirfenidone 16 mg/mL): 200 mOsmo/Kg
- Throat Irritation (phosphate 5 mM, NaCl 50 mM, pH 7, pirfenidone 16 mg/mL, 3.7 micron): 5
- Est. Osmolality (phosphate 5 mM, NaCl 150 mM, pH 7, pirfenidone 16 mg/mL): 400 mOsmo/Kg
- Throat Irritation (phosphate 5 mM, NaCl 150 mM, pH 7, pirfenidone 16 mg/mL, 3.7 micron): 3
